According to US20100291230A1 (priority 2006, published 2010):
Where “and” joins values, the source holds several entries; their conditions need not be identical. Identical values can stand only once.

Key:
Conditions in all cases: in vivo
Meloidogyne javanica = tested on: Meloidogyne javanica
[1] = tested on: nematode inoculum (eggs and larvae) in soil; design: species or system Meloidogyne javanica
[2] = tested on: root-knot nematodes Meloidogyne javanica

| Structure (SMILES) | reduction of galling infection (Meloidogyne javanica) | further results |
| --- | --- | --- |
| N[C@@H](CC(=O)O)C(=O)O [Aspartic acid] | most effective |  |
| N[C@@H](CS)C(=O)O [Cysteine] | most effective |  |
| NCCCC[C@H](N)C(=O)O [Lysine] | most effective |  |
| CBr [Methyl Bromide] |  | control of nematode infection in the roots [1]: highly effective in controlling nematode infection in the roots |
| O=[PH](O)O [phosphite, H3PO3] |  | galling incidence and galling index (nematode control) (Meloidogyne javanica): higher efficacy in controlling nematodes as compared with urea |
| OP(O)O [phosphorous acid] |  | galling incidence [2]: 20% and 10% |
